Test system: 653999-131-R-J2-PDC complex spheroids, growth inhibition
Assay: Anticancer human tumor 653999-131-R-J2-PDC patient-derived lung adenocarcinoma cell line growth inhibition [RAS]
Conditions: for viability, T/C: stronger effect = lower value
Outline: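 Agents were tested in combination matrices in half-log decrements from a top concentration at or near clinical Cmax (10 microM if undetermined). Targets were multi-cell spheroids of tumour lines plus HUVEC and MSC stromal cells.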

[1] = curve of first compound, second compound 0.000949 µM
[2] = curve of first compound, second compound 0.003 µM
[3] = curve of first compound, second compound 0.00949 µM
[4] = curve of first compound, second compound 0.03 µM
[5] = curve of first compound, second compound 0.0949 µM
[6] = curve of first compound, second compound 0.3 µM
[7] = second compound 0.000949 µM, first compound 0.00316 µM
[8] = second compound 0.000949 µM, first compound 0.01 µM
[9] = second compound 0.000949 µM, first compound 0.0316 µM
[10] = second compound 0.000949 µM, first compound 0.1 µM
[11] = second compound 0.000949 µM, first compound 0.316 µM
[12] = second compound 0.000949 µM, first compound 1 µM
[13] = second compound 0.003 µM, first compound 0.00316 µM
[14] = second compound 0.003 µM, first compound 0.01 µM
[15] = second compound 0.003 µM, first compound 0.0316 µM
[16] = second compound 0.003 µM, first compound 0.1 µM
[17] = second compound 0.003 µM, first compound 0.316 µM
[18] = second compound 0.003 µM, first compound 1 µM
[19] = second compound 0.00949 µM, first compound 0.00316 µM
[20] = second compound 0.00949 µM, first compound 0.01 µM
[21] = second compound 0.00949 µM, first compound 0.0316 µM
[22] = second compound 0.00949 µM, first compound 0.1 µM
[23] = second compound 0.00949 µM, first compound 0.316 µM
[24] = second compound 0.00949 µM, first compound 1 µM
[25] = second compound 0.03 µM, first compound 0.00316 µM
[26] = second compound 0.03 µM, first compound 0.01 µM
[27] = second compound 0.03 µM, first compound 0.0316 µM
[28] = second compound 0.03 µM, first compound 0.1 µM
[29] = second compound 0.03 µM, first compound 0.316 µM
[30] = second compound 0.03 µM, first compound 1 µM
[31] = second compound 0.0949 µM, first compound 0.00316 µM
[32] = second compound 0.0949 µM, first compound 0.01 µM
[33] = second compound 0.0949 µM, first compound 0.0316 µM
[34] = second compound 0.0949 µM, first compound 0.1 µM
[35] = second compound 0.0949 µM, first compound 0.316 µM
[36] = second compound 0.0949 µM, first compound 1 µM
[37] = second compound 0.3 µM, first compound 0.00316 µM
[38] = second compound 0.3 µM, first compound 0.01 µM
[39] = second compound 0.3 µM, first compound 0.0316 µM
[40] = second compound 0.3 µM, first compound 0.1 µM
[41] = second compound 0.3 µM, first compound 0.316 µM
[42] = second compound 0.3 µM, first compound 1 µM
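Further: spheroids exposed to the agents for seven days before the readout.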

**Q.** Which IC50 [1] does the source give for `C=CC(=O)N1CCN(c2nc(OCC3CCCN3C)nc3c(F)c(-c4nc(N)cc(C)c4C(F)(F)F)c(Cl)cc23)C(C)C1` (stereo not drawn) + CCn1c(-c2cc(N3CCN(C)CC3)cnc2C(C)OC)c2c3cc(ccc31)-c1csc(n1)CC(NC(=O)C1CC1C)C(=O)N1CCCC(N1)C(=O)OCC(C)(C)C2 here?
**A.** > 1 µM

**Q.** What about the IC50 [2] of the same molecule?
**A.** > 1 µM

**Q.** What about the IC50 [3] of the same molecule?
**A.** 0.0324 µM

**Q.** And the IC50 [4]?
**A.** < 0.00316 µM

**Q.** And the IC50 [5]?
**A.** < 0.00316 µM

**Q.** What about the IC50 [6] of the same molecule?
**A.** < 0.00316 µM

**Q.** What about the viability, T/C [7] of the same molecule?
**A.** 83.2%

**Q.** And the viability, T/C [8]?
**A.** 82.7%

**Q.** And the viability, T/C [9]?
**A.** 82.1%

**Q.** And the viability, T/C [10]?
**A.** 78.4%

**Q.** What about the viability, T/C [11] of the same molecule?
**A.** 92%

**Q.** What about the viability, T/C [12] of the same molecule?
**A.** 86.1%

**Q.** What about the viability, T/C [13] of the same molecule?
**A.** 57.9%

**Q.** What about the viability, T/C [14] of the same molecule?
**A.** 63%

**Q.** And the viability, T/C [15]?
**A.** 59.1%

**Q.** And the viability, T/C [16]?
**A.** 65.7%

**Q.** And the viability, T/C [17]?
**A.** 63.3%

**Q.** What about the viability, T/C [18] of the same molecule?
**A.** 75.6%

**Q.** What about the viability, T/C [19] of the same molecule?
**A.** 50%

**Q.** What about the viability, T/C [20] of the same molecule?
**A.** 57.5%

**Q.** And the viability, T/C [21]?
**A.** 50.2%

**Q.** And the viability, T/C [22]?
**A.** 40.4%

**Q.** What about the viability, T/C [23] of the same molecule?
**A.** 40.2%

**Q.** And the viability, T/C [24]?
**A.** 42.6%

**Q.** And the viability, T/C [25]?
**A.** 46.5%

**Q.** And the viability, T/C [26]?
**A.** 35.3%

**Q.** What about the viability, T/C [27] of the same molecule?
**A.** 43.2%

**Q.** What about the viability, T/C [28] of the same molecule?
**A.** 32%

**Q.** What about the viability, T/C [29] of the same molecule?
**A.** 37.3%

**Q.** What about the viability, T/C [30] of the same molecule?
**A.** 34.9%

**Q.** What about the viability, T/C [31] of the same molecule?
**A.** 28.9%

**Q.** What about the viability, T/C [32] of the same molecule?
**A.** 29.4%

**Q.** And the viability, T/C [33]?
**A.** 26.7%

**Q.** And the viability, T/C [34]?
**A.** 38.9%

**Q.** And the viability, T/C [35]?
**A.** 38.6%

**Q.** And the viability, T/C [36]?
**A.** 35.9%

**Q.** What about the viability, T/C [37] of the same molecule?
**A.** 29.5%

**Q.** And the viability, T/C [38]?
**A.** 27.5%

**Q.** And the viability, T/C [39]?
**A.** 21.8%

**Q.** And the viability, T/C [40]?
**A.** 32.6%

**Q.** What about the viability, T/C [41] of the same molecule?
**A.** 28.3%

**Q.** What about the viability, T/C [42] of the same molecule?
**A.** 26.1%

**Q.** How did the viability, T/C (compound 0.0316 µM) turn out when `C=CC(=O)N1CCN(c2nc(OCC3CCCN3C)nc3c(F)c(-c4nc(N)cc(C)c4C(F)(F)F)c(Cl)cc23)C(C)C1` (stereo not drawn) was run?
**A.** 107% [middle of 12 runs]

**Q.** And the viability, T/C (compound 0.316 µM)?
**A.** 107% [middle of 12 runs]

**Q.** What about the IC50 (compound alone, run of 09/09/2024) of the same molecule?
**A.** > 1 µM

**Q.** And the IC50 (curve of compound)?
**A.** > 1 µM

**Q.** For `C=CC(=O)N1CCN(c2nc(OCC3CCCN3C)nc3c(F)c(-c4nc(N)cc(C)c4C(F)(F)F)c(Cl)cc23)C(C)C1` (stereo not drawn) + CCn1c(-c2cccnc2C(C)OC)c2c3cc(ccc31)N1CCOC(CC(NC(=O)C(C(C)C)N(C)C(=O)C3(F)CCN(C(=O)C#CC(C)(C)N(C)C)CC3)C(=O)N3CCCC(N3)C(=O)OCC(C)(C)C2)C1, which IC50 [1] is on record?
**A.** > 1 µM

**Q.** And the IC50 [2]?
**A.** > 1 µM

**Q.** What about the IC50 [3] of the same molecule?
**A.** > 1 µM

**Q.** And the IC50 [4]?
**A.** > 1 µM

**Q.** What about the IC50 [5] of the same molecule?
**A.** > 1 µM

**Q.** What about the IC50 [6] of the same molecule?
**A.** > 1 µM

**Q.** And the viability, T/C [7]?
**A.** 94.1%

**Q.** What about the viability, T/C [8] of the same molecule?
**A.** 103%

**Q.** What about the viability, T/C [9] of the same molecule?
**A.** 101%

**Q.** What about the viability, T/C [10] of the same molecule?
**A.** 98.3%

**Q.** And the viability, T/C [11]?
**A.** 103%

**Q.** And the viability, T/C [12]?
**A.** 91.5%

**Q.** And the viability, T/C [13]?
**A.** 113%

**Q.** And the viability, T/C [14]?
**A.** 101%

**Q.** What about the viability, T/C [15] of the same molecule?
**A.** 102%

**Q.** And the viability, T/C [16]?
**A.** 98.9%

**Q.** What about the viability, T/C [17] of the same molecule?
**A.** 99.8%

**Q.** What about the viability, T/C [18] of the same molecule?
**A.** 104%

**Q.** And the viability, T/C [19]?
**A.** 93.2%

**Q.** What about the viability, T/C [20] of the same molecule?
**A.** 104%

**Q.** And the viability, T/C [21]?
**A.** 102%

**Q.** What about the viability, T/C [22] of the same molecule?
**A.** 96.9%

**Q.** And the viability, T/C [23]?
**A.** 109%

**Q.** What about the viability, T/C [24] of the same molecule?
**A.** 106%

**Q.** And the viability, T/C [25]?
**A.** 102%

**Q.** And the viability, T/C [26]?
**A.** 99.2%

**Q.** And the viability, T/C [27]?
**A.** 104%

**Q.** And the viability, T/C [28]?
**A.** 91.6%

**Q.** And the viability, T/C [29]?
**A.** 114%

**Q.** What about the viability, T/C [30] of the same molecule?
**A.** 101%

**Q.** And the viability, T/C [31]?
**A.** 84.2%

**Q.** And the viability, T/C [32]?
**A.** 107%

**Q.** What about the viability, T/C [33] of the same molecule?
**A.** 112%

**Q.** What about the viability, T/C [34] of the same molecule?
**A.** 107%

**Q.** And the viability, T/C [35]?
**A.** 108%

**Q.** And the viability, T/C [36]?
**A.** 102%

**Q.** What about the viability, T/C [37] of the same molecule?
**A.** 103%

**Q.** And the viability, T/C [38]?
**A.** 98.9%

**Q.** What about the viability, T/C [39] of the same molecule?
**A.** 111%

**Q.** And the viability, T/C [40]?
**A.** 108%

**Q.** What about the viability, T/C [41] of the same molecule?
**A.** 104%

**Q.** What about the viability, T/C [42] of the same molecule?
**A.** 96.8%
